Source: patent US20090156480A1, “Biodegradable nanoparticle having t-cell recognizable epitope peptide immobilized thereon or encapsulated therein” (priority 2005, published 2009)

Experiments:
Type in all cases: in vivo, BALB/c mice
[1] = tested on: draining lymph node cells; assay: Immunization potential: lymph node cell proliferation ([3H]thymidine intake) after subcutaneous footpad injection; conditions: s.c. footpads, nanoparticles corresponding to 20 μg peptide, FIG. 1; for cell proliferation response (thymidine intake) to the injected T cell recognizable epitope peptide: day 11 lymph node cells stimulated with P1 or P2 20 μg/ml; for cell proliferation response (thymidine intake) to SBP: day 11 lymph node cells stimulated with SBP 10 μg/ml
Description: (§1) Subcutaneously injected into the footpads of BALB/c mice (6-week-old male) was 100 μl (50 μl for each footpad) of a suspension of biodegradable nanoparticles having immobilized thereon Cryj1 or Cryj2 T cell recognizable epitope peptide (P1 or P2) (the amount of nanoparticles corresponding to 20 μg of the peptide) or nanoparticles having no peptide immobilized thereon. On day 11, a draining lymph node was removed to collect lymph node cells, which were then suspended in a mixture of RPM 11640 medium and 10% fetal calf serum (FCS). Such cells from two mice were combined together for use in each group. The cells were placed onto a 96-well incubation plate in an amount of 5×10^5 in each well. Further placed into each well as an antigen stimulus was P1 or P2 to a final concentration of 20 μg/ml or a cedar pollen roughly purified antigen (Sugi Basic Protein, SBP, Asahi Food and Health Care Co., Ltd.) in an amount of 10 μg/ml. Half of the mixture to be incubated was replaced by a fresh mixture to be incubated and containing [^3H] tritium-thymidine (0.5 μCi) 48 hours after the start of incubation. The cells were then collected onto a glass filter 16 hours thereafter by a cell harvester, and the [^3H] tritium intake (thymidine intake) was measured by a liquid scintillation counter for the evaluation of cell proliferation. The SBP mentioned above is an allergen containing both Cryj1 and Cryj2.

[2] = tested on: draining lymph node cells; assay: Ocular (conjunctival) administration, SBP sensitization: cell proliferation (thymidine intake) on SBP stimulation; conditions: 5 μg peptide eight times, SBP sensitization day 16, SBP 10 μg/ml, versus ocularly untreated mice, FIG. 3
Description: as §1, with “Further placed into each well as an antigen stimulus was P1 or P2 to a final concentration of 20 μg/ml or a cedar pollen roughly purified antigen (Sugi Basic Protein, SBP, Asahi Food and Health Care Co., Ltd.) in an amount of 10 μg/ml. Half of the mixture to be incubated was replaced by a fresh mixture to be incubated and containing [^3H] tritium-thymidine (0.5 μCi) 48 hours after the start of incubation.” left out, “The SBP mentioned above is an allergen containing both Cryj1 and Cryj2.” left out
Mucosal administration of antigens is thought promising in immunotherapy, and the conjunctiva is considered to be one of the routes of administration (J. Immunol. 2000, 164: 4543-4550). […] The proliferation of cells was measured by the same method as described in Example 2. […]

interleukin-5 = assay: Ocular (conjunctival) administration: interleukin-5 production by sandwich ELISA; conditions: 5 μg peptide eight times, supernatant 64 hours, SBP 10 μg/ml, versus ocularly untreated mice, FIG. 3
Description: (§2) Mucosal administration of antigens is thought promising in immunotherapy, and the conjunctiva is considered to be one of the routes of administration (J. Immunol. 2000, 164: 4543-4550). Biodegradable nanoparticles having immobilized thereon T cell recognizable epitope peptide were ocularly-instilled to investigate the influence on the response to the subsequent antigen sensitization. A saline solution of Cryj2 T cell recognizable epitope peptide (P2) (5 μg of the peptide) or a suspension of P2 immobilized nanoparticles (corresponding to 5 μg of the peptide) administered dropwise, in an amount of 10 μl, to the conjunctivas of the eyes of BALB/c mice (7-week-old male) eight times (on days 1-4 and days 6-9). On day 16, a suspension of 5 μg of cedar pollen roughly purified antigen SBP in Freund's incomplete adjuvant was injected for antigen sensitization into the right footpads to give rise to an immune response. […] The proliferation of cells was measured by the same method as described in Example 2. For the measurement of cytokine production, the supernatant was collected 64 hours after the start of incubation to quantitatively determine interleukin-5 and interferon-γ by sandwich ELISA using Bio-Plex cytokine assay system (product of Bio-Rad).

interferon-γ = assay: Ocular (conjunctival) administration: interferon-γ production by sandwich ELISA; conditions: 5 μg peptide eight times, supernatant 64 hours, SBP 10 μg/ml, versus ocularly untreated mice, FIG. 3
Description: as §2

Sequence	cell proliferation response (thymidine intake) to the injected T cell recognizable epitope peptide [1]	cell proliferation response (thymidine intake) to SBP [1]	cell proliferation response (thymidine intake) to the stimulation with the antigen [2]	production of interleukin-5 (Th2 cytokine) (interleukin-5)	production of interferon-γ (Th1 cytokine) (interferon-γ)
KQVTIRIGCKTSSS [P1, in b77 the label stands for the P1-immobilized nanoparticles injected]	specific cell proliferation response was observed	observed was a response to the SBP	–	–	–
RAEVSYVHVNGAKF [P2 alone]	specific cell proliferation response was observed	observed was a response to the SBP	lower	reduced to nearly the same extent	lower
